# Test results reported in article PMC7611821 (ACS synthetic biology, 2020).
# Biological target: Ec-F1F0 (E. coli ATP synthase) (Escherichia coli, UniProt P0ABB0+P0ABB4)
# Experiment: NADH-driven ATP synthesis in proteoliposomes, luciferase luminescence
# Format: biochemical
# Details: turnover only; 50 μM ADP, 20 mM Tris-PO4 pH 7.4, 5 mM MgCl2, 200 μM NADH, 20 °C
# Chain of Ec-F1F0 (E. coli ATP synthase) (P0ABB0 whole entry, looked up): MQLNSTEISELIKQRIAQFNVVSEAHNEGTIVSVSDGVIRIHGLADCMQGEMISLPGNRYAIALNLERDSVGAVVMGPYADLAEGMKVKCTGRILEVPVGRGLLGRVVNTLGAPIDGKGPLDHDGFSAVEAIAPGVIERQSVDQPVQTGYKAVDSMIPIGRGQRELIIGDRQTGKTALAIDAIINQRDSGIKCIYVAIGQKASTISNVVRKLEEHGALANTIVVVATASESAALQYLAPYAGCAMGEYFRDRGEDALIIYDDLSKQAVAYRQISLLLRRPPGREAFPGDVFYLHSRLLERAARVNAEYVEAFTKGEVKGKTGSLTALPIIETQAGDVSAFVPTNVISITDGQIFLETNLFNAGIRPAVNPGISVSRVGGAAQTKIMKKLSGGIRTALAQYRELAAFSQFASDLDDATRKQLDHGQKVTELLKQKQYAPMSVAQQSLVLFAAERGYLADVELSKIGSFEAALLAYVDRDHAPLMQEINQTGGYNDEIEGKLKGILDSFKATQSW
# Chain of Ec-F1F0 (E. coli ATP synthase) (P0ABB4 whole entry, looked up): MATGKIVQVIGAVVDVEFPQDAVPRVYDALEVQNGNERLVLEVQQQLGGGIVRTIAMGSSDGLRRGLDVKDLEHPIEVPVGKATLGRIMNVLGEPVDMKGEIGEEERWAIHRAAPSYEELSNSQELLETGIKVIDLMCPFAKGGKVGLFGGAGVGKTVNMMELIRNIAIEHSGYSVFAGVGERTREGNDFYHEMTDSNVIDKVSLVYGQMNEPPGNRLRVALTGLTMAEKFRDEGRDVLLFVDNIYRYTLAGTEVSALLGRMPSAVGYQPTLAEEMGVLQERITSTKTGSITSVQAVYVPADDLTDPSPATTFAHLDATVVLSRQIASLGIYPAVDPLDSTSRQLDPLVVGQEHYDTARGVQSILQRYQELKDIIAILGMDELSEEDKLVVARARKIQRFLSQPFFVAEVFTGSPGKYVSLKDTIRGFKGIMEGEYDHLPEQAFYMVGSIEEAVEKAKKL
structure (smiles),measurement,value
Nc1ncnc2c1ncn2[C@@H]1O[C@H](COP(=O)(O)OP(=O)(O)O)[C@@H](O)[C@H]1O [ADP],"NADH-driven ATP synthesis in proteoliposomes, luciferase luminescence",the Δp is used by Ec-F1F0 to generate ATP
